Data: article PMC12408683 (Archives of Toxicology, 2025)

Legend:
HepG2 cells [1] = details: 24 h
Experimental: γH2AX and p53 levels were assessed by SDS-PAGE and western blotting as reported (Fahrer et al. [2013]). To this end, 5 × 10^5 cells were seeded in 3.5-cm dishes to adhere overnight. […] Proteins were separated by SDS-PAGE followed by the transfer onto a nitrocellulose membrane using the wet blot method. The successful transfer was confirmed by Ponceau S staining of the membrane before blocking with 5% non-fat dry milk in Tris-buffered saline with Tween-20 (MP-TBS-T). Subsequently, the membrane was incubated with the respective primary antibodies overnight at 4 °C. The membranes were washed three times for 5 min with TBS-T before incubating with the respective secondary antibody coupled with horseradish peroxidase. The detection was carried out using the Western Lightning Plus-ECL reagent (Perkin Elmer, Waltham MA, USA) with the c300 chemiluminescence imager (Azure Biosystems, Dublin CA, USA). The used primary and secondary antibodies are detailed in supplementary Table S3.

HepG2 cells [2] = test system: HepG2 cells
Experimental: (§1) The CBMN assay was performed according to the OECD test guideline #487. Therefore, 2 × 10^5 cells were seeded in 3.5 cm dishes and allowed to adhere for 24 h. […] After the 24 h treatment, the medium was discarded and the cells were incubated with fresh medium, containing 6 µg/mL cytochalasin B as cytokinesis inhibitor. The cells were then left to grow for 72 h, allowing for 1.5–2 × cell cycles. Subsequently, the cells were rinsed with PBS and fixed with ice-cold methanol for 10 min at –20 °C. Cells were washed and embedded with Vectashield® containing DAPI (Vector Labs, Burlingame, CA, USA). The samples were analysed with a Zeiss Axio Observer 7 microscope equipped with an Axiocam 305 mono and a 63 × oil immersion objective (plan-apochromat 63x/1.40 DIC M27) using ZEN Software 3.2. 500 binucleated cells per sample were analysed for micronuclei formation.
(§2) As benchmark response (BMR) for all concentration–response curves (adducts, micronuclei), a 2.0-fold increase vs. solvent control was used (BMC100, critical effect size = 1). The determined BMC100 and the corresponding upper and lower boundary (BMCU and BMCL, respectively) of the 90% confidence interval (CI) were used for potency comparison.

[3] = parameters: method as in Yang et al. 2021; details: PBPK modelling, dietary uptake 0.01 mg/kg bw and day; ref Yang et al. 2021; cited from earlier work
male F344 gpt delta rats = test system: male F344 gpt delta rats; parameters: method as in Suzuki et al. 2012a; details: top dose 200 mg ES/kg bw for 4 weeks; ref Suzuki et al. 2012a; cited from earlier work
HepG2-CYP1A2 cells [4] = assay: Alkaline comet assay (DNA strand breaks) in HepG2-CYP1A2 cells; details: 24 h
Experimental: As a positive control, tBuOOH (20 min, 200 µM) was used. Subsequently, the alkaline comet assay was performed to quantify DNA strand breaks as previously described (Haas et al. [2023b]). Per sample, at least 50 comets were counted with Comet IV software (Instem, Staffordshire, UK) using a Zeiss Axio Observer 7 microscope equipped with an Axiocam 305 mono and ZEN 3.2 software (Carl Zeiss, Jena, Germany).

HepG2-CYP1A2 cells [5] = test system: HepG2-CYP1A2 cells
Experimental: as §1, §2

[6] = endpoint MN (CBMN), BMR 2.0-fold increase
[7] = endpoint MN (CBMN), BMR 2.0-fold increase, 90% CI
[8] = range stated for both ES and 1′OH-ES

Compound | γH2AX increase (HepG2 cells [1]; 5 µM 1′OH-ES) | p53 induction (HepG2 cells [1]; 50 µM 1′OH-ES) | γH2AX induction (HepG2 cells [1]; 50 µM 1′OH-ES) | MN induction vs solvent control (CBMN) (HepG2 cells [2]; 50 µM 1′OH-ES (top concentration)) | concentration at which the increase in MN starts (CBMN) (HepG2 cells [2]; 24 h + 72 h recovery) | BMC100 (HepG2 cells [2]; [6]) | BMCL (HepG2 cells [2]; [7]) | BMCU (HepG2 cells [2]; [7]) | BMC for clastogenic response vs BMC for DNA adduct formation (HepG2 cells [2]; [8]) | predicted ES concentration in liver venous blood [3] | mutagenicity, increase vs. control (male F344 gpt delta rats) | DNA strand breaks (alkaline comet assay) (HepG2-CYP1A2 cells [4]; 2 mM ES, vs solvent control) | DNA strand breaks (alkaline comet assay) (HepG2-CYP1A2 cells [4]; up to 2 mM ES) | MN induction vs solvent control (CBMN) (HepG2-CYP1A2 cells [5]; 2000 µM ES (top concentration)) | concentration at which the increase in MN starts (CBMN) (HepG2-CYP1A2 cells [5]; 24 h + 72 h recovery) | concentrations at which clastogenicity was observed (HepG2-CYP1A2 cells [5]; CBMN and MN flow assay) | BMC100 (HepG2-CYP1A2 cells [5]; [6]) | BMCL (HepG2-CYP1A2 cells [5]; [7]) | BMCU (HepG2-CYP1A2 cells [5]; [7]) | BMC for clastogenic response vs BMC for DNA adduct formation (HepG2-CYP1A2 cells [5]; [8])
C=CC(O)c1ccc(OC)cc1 (centres unmarked) [1′OH-ES, 1′-hydroxyestragole] | 2.2 fold | sevenfold | 4.8 fold | roughly a twofold induction | 5 µM | 32.0 µM | 21.0 µM | 106 µM | 12–17 fold |  |  |  |  |  |  |  |  |  |  | 
C=CCc1ccc(OC)cc1 [ES, estragole] |  |  |  |  |  |  |  |  |  | 0.01 µM | twofold | small but not statistically significant increase | did not elicit an increase of DNA strand break levels | roughly a twofold induction | 500 µM | ≥ 1000 µM | 1116 µM | 555 µM | 1755 µM | 12–17 fold
